Data taken from ChEMBL document CHEMBL5370649, “Novel Coumarin Derivatives Inhibit the Quorum Sensing System and Iron Homeostasis as Antibacterial Synergists against Pseudomonas aeruginosa” (J Med Chem, 2023).
The source made the active and inactive calls. The rule behind the calls is not given here.

Experiments:
[1] = test system: Pseudomonas aeruginosa; assay: Antibacterial activity against Pseudomonas aeruginosa PAO1 in ABTGC medium assessed as bacterial growth inhibition incubated for 16 hrs; format: functional
[2] = test system: Pseudomonas aeruginosa; assay: Antibiofilm activity against Pseudomonas aeruginosa PAO1 in ABTGC medium assessed as inhibition of biofilm formation incubated for 24 hrs by crystal violet staining based absorbance assay; format: functional, organism-based; conditions: PAO1, 24 h
[3] = test system: Pseudomonas aeruginosa; assay: In vivo antibacterial activity against Pseudomonas aeruginosa PAO1 infected in Balb/c mouse wound infection model assessed as reduction in bacterial survival rate at wounded area at 0.5 mg/ml,TOP QD for 3 days by CFU assay; format: functional; conditions: time 3 day
[4] = test system: Pseudomonas aeruginosa; assay: In vivo antibacterial activity against Pseudomonas aeruginosa PAO1 infected in Balb/c mouse wound infection model assessed as healing degree of wound at 0.5 mg/ml,TOP QD for 3 days and measured after 9 days; format: functional, organism-based; conditions: time 3.0 day
[5] = Toxicity in Balb/c mouse wound infection model infected with Pseudomonas aeruginosa PAO1 assessed as body weight change at 0.0025 to 0.5 mg/ml,TOP for 3 days; conditions: in vivo, topical_or_ocular, 72 h, dose 0.0025-0.5 mg/ml, time 3 day
[6] = Toxicity in Balb/c mouse wound infection model infected with Pseudomonas aeruginosa PAO1 assessed as body weight change at 0.0025 mg/ml,TOP for 3 days in presence of N-hydroxy-7-((6-methyl-2-oxo-2H-chromen-4-yl)oxy)heptanamide; conditions: in vivo, topical_or_ocular, 72 h, time 3 day
[7] = Toxicity in Balb/c mouse wound infection model infected with Pseudomonas aeruginosa PAO1 assessed as morphological changes in heart at 0.0025 to 0.5 mg/ml,TOP for 3 days by H and E staining based analysis; format: tissue-based; conditions: in vivo, topical_or_ocular, 72 h, dose 0.0025-0.5 mg/ml, time 3 day
[8] = Toxicity in Balb/c mouse wound infection model infected with Pseudomonas aeruginosa PAO1 assessed as morphological changes in liver at 0.0025 to 0.5 mg/ml,TOP for 3 days by H and E staining based analysis; format: tissue-based; conditions: in vivo, topical_or_ocular, 72 h, dose 0.0025-0.5 mg/ml, time 3 day
[9] = Toxicity in Balb/c mouse wound infection model infected with Pseudomonas aeruginosa PAO1 assessed as morphological changes in spleen at 0.0025 to 0.5 mg/ml,TOP for 3 days by H and E staining based analysis; format: tissue-based; conditions: in vivo, topical_or_ocular, 72 h, dose 0.0025-0.5 mg/ml, time 3 day
[10] = Toxicity in Balb/c mouse wound infection model infected with Pseudomonas aeruginosa PAO1 assessed as morphological changes in lung at 0.0025 to 0.5 mg/ml,TOP for 3 days by H and E staining based analysis; format: tissue-based; conditions: in vivo, topical_or_ocular, 72 h, dose 0.0025-0.5 mg/ml, time 3 day
[11] = Toxicity in Balb/c mouse wound infection model infected with Pseudomonas aeruginosa PAO1 assessed as morphological changes in kidney at 0.0025 to 0.5 mg/ml,TOP for 3 days by H and E staining based analysis; format: tissue-based; conditions: in vivo, topical_or_ocular, 72 h, dose 0.0025-0.5 mg/ml, time 3 day
[12] = Toxicity in Balb/c mouse wound infection model infected with Pseudomonas aeruginosa PAO1 assessed as morphological changes in heart at 0.0025 mg/ml,TOP for 3 days in presence of N-hydroxy-7-((6-methyl-2-oxo-2H-chromen-4-yl)oxy)heptanamide by H and E staining based analysis; format: tissue-based; conditions: in vivo, topical_or_ocular, 72 h, time 3 day
[13] = Toxicity in Balb/c mouse wound infection model infected with Pseudomonas aeruginosa PAO1 assessed as morphological changes in liver at 0.0025 mg/ml,TOP for 3 days in presence of N-hydroxy-7-((6-methyl-2-oxo-2H-chromen-4-yl)oxy)heptanamide by H and E staining based analysis; format: tissue-based; conditions: in vivo, topical_or_ocular, 72 h, time 3 day
[14] = Toxicity in Balb/c mouse wound infection model infected with Pseudomonas aeruginosa PAO1 assessed as morphological changes in spleen at 0.0025 mg/ml,TOP for 3 days in presence of N-hydroxy-7-((6-methyl-2-oxo-2H-chromen-4-yl)oxy)heptanamide by H and E staining based analysis; format: tissue-based; conditions: in vivo, topical_or_ocular, 72 h, time 3 day
[15] = Toxicity in Balb/c mouse wound infection model infected with Pseudomonas aeruginosa PAO1 assessed as morphological changes in lung at 0.0025 mg/ml,TOP for 3 days in presence of N-hydroxy-7-((6-methyl-2-oxo-2H-chromen-4-yl)oxy)heptanamide by H and E staining based analysis; format: tissue-based; conditions: in vivo, topical_or_ocular, 72 h, time 3 day
[16] = Toxicity in Balb/c mouse wound infection model infected with Pseudomonas aeruginosa PAO1 assessed as morphological changes in kidney at 0.0025 mg/ml,TOP for 3 days in presence of N-hydroxy-7-((6-methyl-2-oxo-2H-chromen-4-yl)oxy)heptanamide by H and E staining based analysis; format: tissue-based; conditions: in vivo, topical_or_ocular, 72 h, time 3 day
[17] = Metal chelating activity assessed as Fe3+-compound complex formation assessed as pFe(III) value by fluorescence method
[18] = test system: Pseudomonas aeruginosa; assay: Inhibition of iron homeostasis in Pseudomonas aeruginosa PAO1 in ABTGC medium assessed as decrease in iron level at 1.25 to 20 uM in presence of FeCl3 by fluorescence based microplate reader analysis (Rvb= 9.6+/-2.00 microM); format: functional; conditions: dose 1.25-20 µM
[19] = test system: Pseudomonas aeruginosa; assay: In vivo antibacterial activity against Pseudomonas aeruginosa PAO1 infected in Balb/c mouse wound infection model assessed as healing degree of wound at 0.005 mg/ml,TOP QD for 3 days and measured after 9 days; format: functional, organism-based; conditions: time 3.0 day

Compound | MIC [1] [µM] | IC50 [2] [µM] | also measured
O=C(CCCCOc1cc(=O)oc2ccccc12)NO | > 256 | 42.3 | –
NC[C@H]1O[C@H](O[C@H]2[C@H](O)[C@@H](O[C@H]3O[C@H](CO)[C@@H](O)[C@H](N)[C@H]3O)[C@H](N)C[C@@H]2N)[C@H](N)C[C@@H]1O [TOBRAMYCIN] | – | – | Activity [3]: 5.77%; Activity [4]: Active; Activity [5]: Non-Toxic; Activity [6]: Non-Toxic; Activity [7]: Non-Toxic; Activity [8]: Non-Toxic; Activity [9]: Non-Toxic; Activity [10]: Non-Toxic; Activity [11]: Non-Toxic; Activity [12]: Non-Toxic; Activity [13]: Non-Toxic; Activity [14]: Non-Toxic; Activity [15]: Non-Toxic; Activity [16]: Non-Toxic
O=C(CCCCCCOc1cc(=O)oc2cc(Cl)ccc12)NO | > 256 | > 100 | –
O=C(CCCCOc1cc(=O)oc2ccc(Cl)cc12)NO | > 256 | > 100 | –
O=C(CCCCCCOc1ccccc1)NO | > 256 | > 100 | –
Cc1ccc(OCCCCCCC(=O)NO)cc1 | > 256 | > 100 | –
Cc1ccc2oc(=O)cc(NCCCCCCC(=O)NO)c2c1 | > 256 | > 100 | –
Cc1cccc(OCCCCCCC(=O)NO)c1 | > 256 | > 100 | –
Cc1ccc2c(OCCCC(=O)NO)cc(=O)oc2c1 | > 256 | > 100 | –
CCCCCCCCOc1cc(=O)oc2ccc(C)cc12 | > 256 | > 100 | –
COc1ccc2oc(=O)cc(OCCCCCC(=O)NO)c2c1 | > 256 | > 100 | –
O=C(CCCCCOc1cc(=O)oc2cc(Cl)ccc12)NO | > 256 | > 100 | –
Cc1ccc2oc(=O)cc(OCCCCCC(=O)NO)c2c1 | > 256 | 12.3 | –
COc1ccc2c(OCCCCCC(=O)NO)cc(=O)oc2c1 | > 256 | 9.37 | –
O=C(CCCOc1cc(=O)oc2ccc(Cl)cc12)NO | > 256 | > 100 | –
Cc1ccc2c(OCCCCC(=O)NO)cc(=O)oc2c1 | > 256 | > 100 | –
CCCCCCCOc1cc(=O)oc2ccc(C)cc12 | > 256 | > 100 | –
O=C(CCCCCOc1cc(=O)oc2ccc(F)cc12)NO | > 256 | 58.6 | –
O=C(CCCOc1cc(=O)oc2ccc(F)cc12)NO | > 256 | > 100 | –
O=C(CCCCOc1cc(=O)oc2ccc(F)cc12)NO | > 256 | 9.8 | –
Cc1ccc2oc(=O)cc(OCCCCCCCC(=O)NO)c2c1 | > 256 | > 100 | –
COc1ccc2c(OCCCC(=O)NO)cc(=O)oc2c1 | > 256 | > 100 | –
Cc1c(O)c(=O)ccn1C [DEFERIPRONE] | – | – | pFe(III) [17]: 20.1; Activity [18]: 7.74 µM
Cc1ccc2oc(=O)cc(OCCCCCCCCC(=O)NO)c2c1 | > 256 | 20.4 | –
O=C(CCCCCCOc1cc(=O)oc2ccccc12)NO | > 256 | 69.2 | –
COc1ccc2oc(=O)cc(OCCCCCCC(=O)NO)c2c1 | > 256 | > 100 | –
O=C(CCCCCCOc1cc(=O)oc2ccc(Cl)cc12)NO | > 256 | > 100 | –

Compound | MIC [1] [µM] | IC50 [2] [µM] | also measured
O=C(CCCOc1cc(=O)oc2ccc(Br)cc12)NO | > 256 | 70 | –
O=C(CCCCOc1cc(=O)oc2ccc(Br)cc12)NO | > 256 | 29.7 | –
O=C(CCCOc1cc(=O)oc2cc(Cl)ccc12)NO | > 256 | 88.4 | –
O=C(CCCCCOc1cc(=O)oc2ccccc12)NO | > 256 | 69.7 | –
COc1ccc2oc(=O)cc(OCCCCC(=O)NO)c2c1 | > 256 | > 100 | –
Cc1ccc2oc(=O)cc(NCCCCCC(=O)NO)c2c1 | > 256 | > 100 | –
Cc1ccc2c(OCCCCCCC(=O)NO)cc(=O)oc2c1 | > 256 | > 100 | –
COc1ccc2oc(=O)cc(OCCCC(=O)NO)c2c1 | > 256 | > 100 | –
Cc1ccc2c(OCCCCCC(=O)NO)cc(=O)oc2c1 | > 256 | > 100 | –
Cc1ccc2oc(=O)cc(OCCCCC(=O)NO)c2c1 | > 256 | 12.8 | –
Cc1ccc2oc(=O)cc(NCCCC(=O)NO)c2c1 | > 256 | > 100 | –
Cc1ccc2oc(=O)cc(NCCCCC(=O)NO)c2c1 | > 256 | > 100 | –
CC[C@H]1OC(=O)[C@H](C)[C@@H](O[C@H]2C[C@@](C)(OC)[C@@H](O)[C@H](C)O2)[C@H](C)[C@@H](O[C@@H]2O[C@H](C)C[C@H](N(C)C)[C@H]2O)[C@](C)(O)C[C@@H](C)CN(C)[C@H](C)[C@@H](O)[C@]1(C)O [AZITHROMYCIN] | – | 17.3 | –
O=C(CCCCCCOc1cc(=O)oc2ccc(Br)cc12)NO | > 256 | 44.4 | –
Cc1ccc2oc(=O)cc(OCCCC(=O)NO)c2c1 | > 256 | 77.4 | –
O=C(O)c1cn(C2CC2)c2cc(N3CCNCC3)c(F)cc2c1=O | – | – | Activity [19]: Active
O=C(CCCCCCOc1cc(=O)oc2ccc(F)cc12)NO | > 256 | 26.4 | –
Cc1ccccc1OCCCCCCC(=O)NO | > 256 | > 100 | –
COc1ccc2c(OCCCCCCC(=O)NO)cc(=O)oc2c1 | > 256 | 4.74 | –
Cc1ccc2oc(=O)cc(OCc3ccc(C(=O)NO)cc3)c2c1 | > 256 | > 100 | –
O=C(CCCOc1cc(=O)oc2ccccc12)NO | > 256 | 88.4 | –
O=C(CCCCCOc1cc(=O)oc2ccc(Cl)cc12)NO | > 256 | > 100 | –
O=C(CCCCOc1cc(=O)oc2cc(Cl)ccc12)NO | > 256 | 42.3 | –
COc1ccc2c(OCCCCC(=O)NO)cc(=O)oc2c1 | > 256 | > 100 | –
O=C(CCCCCOc1cc(=O)oc2ccc(Br)cc12)NO | > 256 | > 100 | –
CCCCCCOc1cc(=O)oc2ccc(C)cc12 | > 256 | > 100 | –
